These results are taken from patent US8084453B2, “Alkyl substituted indoloquinoxalines” (Oxypharma AB, priority 2004, dated 2011).

The subject of data set [1] is EAE model. As to conditions: prior art patents; cited from earlier work.
For data set [2], the system named is collagen-induced arthritis (CIA) model. As to conditions: prior art patents; cited from earlier work.
Data set [3] deals with mAB/LPS-induced arthritic mice. The data set is described as follows: mAb/LPS-induced arthritis in mice, hind paw thickness. Format: in vivo. As to conditions: for Mean group values of hind paw thickness, day 0: day 0 (base-line); for Mean group values of hind paw thickness, day 0 / Mean group values of hind paw thickness, day 7 / Mean group values of hind paw thickness, day 9 / Mean group values of hind paw thickness, day 11: once daily (day 0-5) repeated subcutaneous administration; for Hind paw thickness vs vehicle control (corn oil): comparison with vehicle control (corn oil). From the text:
Collagen-induced arthritis (CIA) in mice is widely used as an experimental model for rheumatoid arthritis (RA) in humans. CIA is mediated by autoantibodies which bind to a particular region of type II collagen, such as CB11 (CNBr-digested fragment of type II collagen).
Antibody-mediated CIA can be induced by iv injection of a combination of 4 different monoclonal antibodies (Arthrogen-CIA® mAb) generated by Arthrogen-CIA® mouse B-hybridoma cell lines.
Three of the mAbs recognize autoantigenic epitopes clustered within an 84 amino acid residue fragment, LyC2 (the smallest arthritogenic fragment of type II collagen) of CB11 and the fourth mAb reacts with LyC1 (FIG. 1). Importantly, all 4 mAbs recognize the conserved epitopes shared by various species of type II collagen and crossreact with homologous and heterologous type II collagen.
A cocktail of 4 monoclonal antibodies are used. These arthritogenic mAbs alone or in combination with bacterial LPS can induce severe arthritis within days instead of weeks (classic CIA model).
(A) A cocktail of 4 monoclonal antibodies to type II collagen (2 mg) is injected intravenously on day 0 followed by an intraperitoneal injection of LPS (50 μg) on day 3. Arthritis will develop on day 4 and reach its peak on day 7-8. The therapeutic effects of test compounds will be determined on day 7. […] formation and bone degradation will be more significant on day 14 and day 21 (not shown). (B) Authentic collagen-induced arthritis.
Measurement of arthritis. Hind paw thickness, left and right of each animal (9 animals in each group) was measured in mm on study days 0 (base-line), 7, 9 and 11 using a Mitutoyo Electronic Digital Caliper. […] Dexamethasone is a cortisone which suppresses inflammation and normal immune response, and is used systemically and locally to treat inflammatory disorders. Patients are for safety reasons treated with short courses of cortisones to bring the inflammation under control in the window between starting the DMARD or DMARD combination and the likely response time.
FIG. 3. Mean group values (mm) of hind paw thickness measured throughout the entire 11-day observation period in the mAB/LPS-induced arthritic mice following once daily (day 0-5) repeated subcutaneous administration of B-220 analogues, Dexamethasone (positive control) or corn oil (negative control).

Consider `Cc1cc2nc3c4ccccc4n(CCN(C)C)c3nc2cc1C` [Compound B-220, 2,3-dimethyl-6-(N,N-dimethylaminoethyl)-6H-indolo(2,3-b)quinoxaline, reference compound], for which the “treating MS in the EAE model” value in data set [1] is “promising compound”. The “treating RA in the collagen-induced arthritis (CIA) model” value in data set [2] is listed as “promising compound”. Moreover, in data set [3], the “Mean group values of hind paw thickness, day 0” value (shortened to “Mean group values … day 0”) came to 2.2 mm; the “Mean group values of hind paw thickness, day 7” value (“Mean group values … day 7” for short) was determined as 3.1 mm; the “Mean group values of hind paw thickness, day 9” value (“Mean group values … day 9” below) is reported as 3.0 mm; the “Mean group values of hind paw thickness, day 11” value (shortened to “Mean group values … day 11”) is listed as 2.8 mm.

One may read the melting point as the temperature of the solid-liquid transition. `Cc1cc2nc3c4cc(F)ccc4n(CC(N)=O)c3nc2cc1C` [Compound C, 2,3-Dimethyl-9-fluoro-indolo[2,3-b]quinoxaline-6-yl-acetamide] showed a melting point of 316 to 319 °C. Also, in data set [3], the “Mean group values … day 0” value worked out at 2.2 mm; the “Mean group values … day 7” value was 3.1 mm; the “Mean group values … day 9” value amounted to 3.0 mm; the “Mean group values … day 11” value was found to be 2.8 mm.

As to `Cc1cc2nc3c4cc(Cl)ccc4n(CC(=O)NCCN(C)C)c3nc2cc1C` [Compound E, 9-Chloro-2,3-dimethyl-6-(N,N-dimethylaminoethylamino-2-oxoethyl)-6H-indolo-[2,3-b]quinoxaline], in data set [3], the “Hind paw thickness vs vehicle control (corn oil)” value is “highly significant lower”; the “Mean group values … day 0” value was 2.2 mm; the “Mean group values … day 7” value is 2.3 mm; the “Mean group values … day 9” value amounted to 2.3 mm. Besides, in data set [3], the “Mean group values … day 11” value is given as 2.3 mm.

For the compound `Cc1cc2nc3c4cc(F)ccc4n(CC(=O)NCCN)c3nc2cc1C` [Compound H, 2,3-Dimethyl-6-(aminoethylamino-2-oxoethyl)-9-fluoro-6H-indolo[2,3-b]quinoxaline], the melting point was 269 to 271 °C. Moreover, in data set [3], the “Hind paw thickness vs vehicle control (corn oil)” value is “highly significant lower”; the “Mean group values … day 0” value was found to be 2.2 mm; the “Mean group values … day 7” value is 2.5 mm; the “Mean group values … day 9” value amounted to 2.5 mm. The “Mean group values … day 11” value in data set [3] stood at 2.5 mm.

The compound `Cc1cc2nc3c4cc(Cl)ccc4n(CC(=O)O)c3nc2cc1C` [Compound K, 2,3-Dimethyl-9-chloro-indolo[2,3-b]quinoxaline-6-yl acetic acid] came in with a melting point of 331 to 332 °C.

Compound `Cc1cc2nc3c4cc(F)ccc4n(CC(=O)O)c3nc2cc1C` [Compound L, 2,3-dimethyl-9-fluoro-indolo[2,3-b]quinoxaline-6-yl-acetic acid] returned a melting point of 317 to 318 °C.

On to `C[C@@H]1C[C@H]2[C@@H]3CCC4=CC(=O)C=C[C@]4(C)[C@@]3(F)[C@@H](O)C[C@]2(C)[C@@]1(O)C(=O)CO` [Dexamethasone, reference compound], for which, in data set [3], the “Mean group values … day 0” value came to 2.2 mm; the “Mean group values … day 7” value stood at 2.3 mm; the “Mean group values … day 9” value came to 2.3 mm; the “Mean group values … day 11” value is recorded as 2.3 mm.
